Assay [1] addresses kappa opioid receptors (KOR) (Homo sapiens, UniProt P41145). The assay can be described thus: kappa opioid receptor (KOR) Ki determination by NIMH PDSP. The class given is binding. The protocol: (§1) The compounds from the above Examples were tested for activity vs. kappa opioid receptors (KOR) and for Sigma-1 activity. Ki determinations were generously provided by the National Institute of Mental Health's Psychoactive Drug Screening Program (PDSP), Contract # HHSN-271-2013-00017-C (NIMH PDSP). The NIMH PDSP is Directed by Bryan L. Roth MD, PhD at the University of North Carolina at Chapel Hill and Project Officer Jamie Driscoll at NIMH, Bethesda Md. U.S.A. Procedures employed by the PDSP are described in the NIMH PDSP Assay Protocol Book, Version II.

The target of another assay is Sigma-1. As to the kind of experiment: Sigma-1 Ki determination by NIMH PDSP. It counts as binding. The protocol: as §1

Bounds are passed on as bounds.

Chain of kappa opioid receptors (KOR) (P41145 whole entry): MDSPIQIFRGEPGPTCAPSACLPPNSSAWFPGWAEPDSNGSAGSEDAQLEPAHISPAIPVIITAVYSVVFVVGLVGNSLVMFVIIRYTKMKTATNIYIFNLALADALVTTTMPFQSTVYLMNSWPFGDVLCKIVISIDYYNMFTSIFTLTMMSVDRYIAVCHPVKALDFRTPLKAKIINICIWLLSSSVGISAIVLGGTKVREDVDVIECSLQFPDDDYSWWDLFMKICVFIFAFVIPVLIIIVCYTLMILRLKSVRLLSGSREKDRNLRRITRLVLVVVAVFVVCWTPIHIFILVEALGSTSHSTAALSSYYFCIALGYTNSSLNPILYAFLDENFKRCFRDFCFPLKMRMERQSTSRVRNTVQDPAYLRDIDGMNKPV

For the compound `CN[C@]1(c2ccccc2Cl)CCCC[C@H]1NCCCN1CCN(C)CC1` (relative stereo) [Example 17a], the values for the Ki (in assay [1]; at Sigma-1) were > 1000 nM and 19 nM, respectively.

In the case of `CN[C@]1(c2ccccc2Cl)CCCC[C@H]1NCCCc1ccccc1` (relative stereo) [Example 15a, Trans-1-(2-chlorophenyl)-N^2-(3-phenylpropyl)-N^1-methylcyclohexane-1,2-diamine], the values for the inhibitory constant (Ki) (in assay [1]; at Sigma-1) were 526 nM and 2260 nM, respectively.

On to `CN[C@@]1(c2ccccc2Cl)CCCC[C@H]1NCCCc1ccccc1` (relative stereo) [Example 15b, Cis-1-(2-chlorophenyl)-N^2-(3-phenylpropyl)-N^1-methylcyclohexane-1,2-diamine], for which the Ki stood at 139 nM in assay [1] and 177 nM at Sigma-1.

Take `CN[C@@]1(c2ccccc2Cl)CCCC[C@H]1NCCCN1CCN(C)CC1` (relative stereo) [Example 17b]: the Ki in assay [1] is > 1000 nM; on Sigma-1, 72 nM.

Take `CN[C@@]1(c2ccccc2Cl)CCCC[C@H]1NC1CCCCC1` (relative stereo) [Example 18b, Cis-1-(2-chlorophenyl)-N^2-cyclohexyl-N^1-methylcyclohexane-1,2-diamine]: in assay [1], the Ki is 608 nM.

Consider `CN[C@@]1(c2ccccc2Cl)CCCC[C@H]1NCCCN1CCOCC1` (relative stereo) [Example 16b], for which the Ki in assay [1] amounted to 798 nM; on Sigma-1 it was 17 nM.

Take `CN[C@@]1(c2ccccc2Cl)CCCC[C@H]1NCCCn1ccnc1` (relative stereo) [Example 12b, Cis-1-(2-chlorophenyl)-N^2-(3-(1-imidazolyl)-propyl)-N^1-methylcyclohexane-1,2-diamine]: the Ki in assay [1] was > 1000 nM; at Sigma-1, 231 nM.

Source of the values: patent US9283196B1, “Cycloalkyl-diamines for CNS disorders” (MediSynergics, LLC, priority 2013, dated 2016).
